# Data: ChEMBL document CHEMBL2073755, “TP-search Transporter Database” (Jpn Pharmacol Ther, 2001)
# T1: Solute carrier family 22 member 7 (Rattus norvegicus, UniProt Q5RLM2)
# T1 sequence (Q5RLM2 whole entry): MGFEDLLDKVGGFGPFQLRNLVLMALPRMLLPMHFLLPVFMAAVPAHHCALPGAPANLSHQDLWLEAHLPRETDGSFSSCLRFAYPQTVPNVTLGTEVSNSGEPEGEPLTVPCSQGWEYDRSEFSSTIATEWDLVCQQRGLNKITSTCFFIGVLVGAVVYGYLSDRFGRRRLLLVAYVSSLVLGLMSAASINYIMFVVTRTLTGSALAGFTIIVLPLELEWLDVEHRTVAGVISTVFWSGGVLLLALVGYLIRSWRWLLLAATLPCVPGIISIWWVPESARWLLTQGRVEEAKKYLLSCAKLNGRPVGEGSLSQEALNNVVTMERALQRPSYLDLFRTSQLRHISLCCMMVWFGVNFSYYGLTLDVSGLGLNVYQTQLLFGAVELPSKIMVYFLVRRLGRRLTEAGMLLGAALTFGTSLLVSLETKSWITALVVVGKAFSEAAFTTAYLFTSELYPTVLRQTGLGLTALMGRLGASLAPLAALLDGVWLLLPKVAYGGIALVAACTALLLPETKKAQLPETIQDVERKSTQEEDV
# T2: Oat2 (Solute carrier family 22 member 7) (Rattus norvegicus, UniProt Q5RLM2)
# T2 sequence (Q5RLM2 whole entry): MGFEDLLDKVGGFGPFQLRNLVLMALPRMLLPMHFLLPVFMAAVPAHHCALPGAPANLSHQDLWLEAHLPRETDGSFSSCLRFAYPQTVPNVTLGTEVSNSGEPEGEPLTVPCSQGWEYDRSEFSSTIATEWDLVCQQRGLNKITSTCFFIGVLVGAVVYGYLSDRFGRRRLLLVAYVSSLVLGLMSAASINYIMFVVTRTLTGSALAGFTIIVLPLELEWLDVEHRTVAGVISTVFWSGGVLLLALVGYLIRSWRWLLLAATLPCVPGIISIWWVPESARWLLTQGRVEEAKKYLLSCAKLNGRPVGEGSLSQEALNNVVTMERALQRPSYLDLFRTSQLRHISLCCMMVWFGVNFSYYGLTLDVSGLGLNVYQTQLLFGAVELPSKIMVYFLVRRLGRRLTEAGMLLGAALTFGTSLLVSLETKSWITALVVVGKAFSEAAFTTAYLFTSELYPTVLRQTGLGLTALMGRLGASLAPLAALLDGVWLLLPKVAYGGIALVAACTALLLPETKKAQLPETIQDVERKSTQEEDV
# Assays:
# [1] = molecular target: T1, Solute carrier family 22 member 7; assay: TP_TRANSPORTER: inhibition of Salicylate uptake in Oat2-expressing LLC PK1 cells; assay type: functional, cell-based
# [2] = molecular target: T2, Oat2 (Solute carrier family 22 member 7); assay: (§1) TP_TRANSPORTER: uptake in Oat2-expressing LLC PK1 cells; assay type: functional, cell-based; settings: pig
# [3] = substrate: Nc1ccn([C@H]2CC[C@@H](CO)O2)c(=O)n1; assay: as §1; assay type: functional, cell-based
# [4] = substrate: O=C(O)c1ccccc1O; assay: cells, lysate or membranes named
Molecule,Ki [1],Km [2],also measured
CC1(C)C(/C=C/C=C/C=C/C=C2\N(CCCCS(=O)(=O)O)c3ccc4ccccc4c3C2(C)C)=[N+](CCCCS(=O)(=O)[O-])c2ccc3ccccc3c21 [INDOCYANINE GREEN],1150 nM,,
CC(C(=O)O)c1cccc(C(=O)c2ccccc2)c1 (configuration not stated) [KETOPROFEN],1840 nM,,
Cc1cn([C@H]2C[C@H](N=[N+]=[N-])[C@@H](CO)O2)c(=O)[nH]c1=O [ZIDOVUDINE],,26 µM,
COc1ccc(Cl)cc1C(=O)NCCc1ccc(S(=O)(=O)NC(=O)NC2CCCCC2)cc1 [GLYBURIDE],12300 nM,,
COc1ccc2c(c1)c(CC(=O)O)c(C)n2C(=O)c1ccc(Cl)cc1 [INDOMETHACIN],,0.366 µM,
Solute carrier family 22 member 7 (Rattus norvegicus) (protein) MGFEDLLDKVGGFGPFQLRNLVLMALPRMLLPMHFLLPVFMAAVPAHHCALPGAPANLSHQDLWLEAHLPRETDGSFSSCLRFAYPQTVPNVTLGTEVSNSGEPEGEPLTVPCSQGWEYDRSEFSSTIATEWDLVCQQRGLNKITSTCFFIGVLVGAVVYGYLSDRFGRRRLLLVAYVSSLVLGLMSAASINYIMFVVTRTLTGSALAGFTIIVLPLELEWLDVEHRTVAGVISTVFWSGGVLLLALVGYLIRSWRWLLLAATLPCVPGIISIWWVPESARWLLTQGRVEEAKKYLLSCAKLNGRPVGEGSLSQEALNNVVTMERALQRPSYLDLFRTSQLRHISLCCMMVWFGVNFSYYGLTLDVSGLGLNVYQTQLLFGAVELPSKIMVYFLVRRLGRRLTEAGMLLGAALTFGTSLLVSLETKSWITALVVVGKAFSEAAFTTAYLFTSELYPTVLRQTGLGLTALMGRLGASLAPLAALLDGVWLLLPKVAYGGIALVAACTALLLPETKKAQLPETIQDVERKSTQEEDV,,,Km [3]: 3000 µM; Km [4]: 81.2 µM
